Test results as given in patent publication US20110124588A1, “SYNERGISTIC ACTIVE INGREDIENT COMBINATIONS” (Bayer Cropscience AG, priority 2008, published 2011).
Where two headings read alike, the source gives them in different places.

Columns and labels:
Spodoptera frugiperda = Spodoptera frugiperda larvae test (sprayed cabbage leaves); format: in vivo, army worm (Spodoptera frugiperda) larvae; settings: Spodoptera frugiperda
Text: (§1) The expected activity of a given combination of two active compounds can be calculated as follows, according to S. R. Colby, Weeds 15 (1967), 20-22:
(§2) X is the kill rate, expressed as a percentage of the untreated control, when employing active compound A at an application rate of m g/ha or in a concentration of m ppm, Y is the kill rate, expressed as a percentage of the untreated control, when employing active compound B at an application rate of n g/ha or in a concentration of n ppm and E is the kill rate, expressed as a percentage of the untreated control, when employing active compounds A and B at application rates of m and n g/ha or in a concentration of m and n ppm, then
(§3) If the actual kill rate exceeds the calculated value, the kill of the combination is superadditive, i.e. a synergistic effect is present. In this case, the actually observed kill rate must exceed the value calculated using the above formula for the expected kill rate (E).
(§4) solvents: 78 parts by weight of acetone • • 1.5 parts by weight of dimethylformamide emulsifier: 0.5 part by weight of alkylaryl polyglycol ether
(§5) To produce a suitable preparation of active compound, 1 part by weight of active compound is mixed with the stated amounts of solvents and emulsifier, and the concentrate is diluted with emulsifier-containing water to the desired concentration.
Cabbage leaves (Brassica oleracea) are treated by spraying with the active compound preparation of the desired concentration and are populated with larvae of the army worm (Spodoptera frugiperda) while the leaves are still moist.
After the desired period of time, the kill in % is determined 100% means that all caterpillars have been killed; 0% means that none of the caterpillars have been killed. The kill rates determined are entered into Colby's formula.

Phaedon cochleariae = Phaedon cochleariae larvae test (sprayed cabbage leaves); format: in vivo, mustard beetle (Phaedon cochleariae) larvae
Experimental: as §3
Solvents: 78 parts by weight of acetone • • 1.5 parts by weight of dimethylformamide Emulsifier: 0.5 part by weight of alkylaryl polyglycol ether
After the desired period of time, the kill in % is determined 100% means that all beetle larvae have been killed; 0% means that none of the beetle larvae have been killed. The kill rates determined are entered into Colby's formula.

Myzus persicae = Myzus persicae test (spray treatment of infested cabbage leaves); format: in vivo, green peach aphid (Myzus persicae); settings: Myzus persicae
Experimental: as §3, §4
After the desired period of time, the kill in % is determined 100% means that all aphids have been killed; 0% means that none of the aphids have been killed. The kill rates determined are entered into Colby's formula.

Tetranychus urticae = Tetranychus urticae test (OP-resistant/spray treatment); format: in vivo, greenhouse red spider mite (Tetranychus urticae); settings: Tetranychus urticae, 144 h; single active compound, 0.8 g/ha, after 6 d; read-out: Kill in % after 6 d
Text: as §1, §2, §3, §4, §5
Discs of bean leaves (Phaseolus vulgaris) which are infested by all stages of the greenhouse red spider mite (Tetranychus urticae) are sprayed with an active compound preparation of the desired concentration.
After the desired period of time, the activity in % is determined 100% means that all spider mites have been killed; 0% means that none of the spider mites have been killed.

[1] = 144 h, read-out: Kill in % after 6 d
[2] = Phaedon cochleariae, 144 h, single active compound, 6 d, read-out: Kill in % after 6 d
[3] = Phaedon cochleariae, 48 h, single active compound, 2 d, read-out: Kill in % after 2 d
[4] = single active compound, 0.8 g/ha, 2 d
[5] = 48 h, read-out: Kill in % after 2 d
[6] = 24 h, read-out: Kill in % after 1 d

Work on `N#Cc1ccc(CC(=NNC(=O)Nc2ccc(OC(F)(F)F)cc2)c2cccc(C(F)(F)F)c2)cc1` (mixture of isomers) [metaflumizone] yielded a pest or weed control at 4 g/ha (Spodoptera frugiperda; 144 h, single active compound, 4 g/ha, 6 d, read-out: Kill in % after 6 d) of 0%.

Compound `CC1(C)C(/C=C(\Cl)C(F)(F)F)C1C(=O)OC(C#N)c1cccc(Oc2ccccc2)c1` (stereo not shown) [lambda-cyhalothrin] has a pest or weed control at 0.8 g/ha (Spodoptera frugiperda; [1]) of 67%, a pest or weed control at 0.16 g/ha (Phaedon cochleariae; [2]) of 17% and a pest or weed control at 0.0064 g/ha (Myzus persicae; [1]) of 0%. It also gave a pest or weed control at 0.032 g/ha (Myzus persicae; [1]) of 0%.

`CN1CN(C)/C(=N\[N+](=O)[O-])N(Cc2cnc(Cl)s2)C1` [AKD 1022] was tested, and the “Kill in % after 6 d” value (Phaedon cochleariae; single active compound, 0.8 g/ha, 6 d) was 0%.

Compound `COC(=O)N(C(=O)N1COC2(C(=O)OC)Cc3cc(Cl)ccc3C2=N1)c1ccc(OC(F)(F)F)cc1` (stereo not shown) [indoxacarb] has a pest or weed control at 4 g/ha (Phaedon cochleariae; [3]) of 0%, a pest or weed control at 20 g/ha (Phaedon cochleariae; [3]) of 33% and a pest or weed control at 0.8 g/ha (Myzus persicae; [1]) of 0%.

Compound `COP(=O)(NC(C)=O)SC` (stereo not shown) [acephate] has a pest or weed control at 100 g/ha (Phaedon cochleariae; Phaedon cochleariae, 144 h, read-out: Kill in % after 6 d) of 0%.

For `CC1(C)C(C=C(Cl)Cl)C1C(=O)OC(C#N)c1cccc(Oc2ccccc2)c1` (stereo not drawn) [alpha-cypermethrin], the pest or weed control at 0.16 g/ha (Phaedon cochleariae; [2]) was 0%, the “Kill in % after 2 d” value (Phaedon cochleariae; [4]) was 0% and the pest or weed control at 0.0064 g/ha (Myzus persicae; [1]) was 0%.

Work on `O=C(NC(=O)c1c(F)cccc1F)Nc1cc(Cl)c(OC(F)(F)C(F)C(F)(F)F)cc1Cl` (stereo not shown) [lufenuron] yielded a pest or weed control at 100 g/ha (Spodoptera frugiperda; [5]) of 0% and a pest or weed control at 100 g/ha (Phaedon cochleariae; Phaedon cochleariae, 48 h, single active compound, 100 g/ha, 2 d, read-out: Kill in % after 2 d) of 0%.

In the case of `CC[S+]([O-])c1c(C#N)nn(-c2c(Cl)cc(C(F)(F)F)cc2Cl)c1N` (stereo not shown) [ethiprole], the pest or weed control at 0.8 g/ha (Myzus persicae; [1]) is reported as 0%.

Compound `O=[N+]([O-])/N=C1\NCCN1Cc1ccc(Cl)nc1` [imidacloprid] has a pest or weed control at 4 g/ha (Phaedon cochleariae; [3]) of 0%, a pest or weed control at 4 g/ha (Phaedon cochleariae; [2]) of 0% and a pest or weed control at 20 g/ha (Phaedon cochleariae; [2]) of 50%. The pest or weed control at 0.16 g/ha (Myzus persicae; [6]) was 50%.

`Cc1cc(C)c([S+]([O-])CC(F)(F)F)cc1-n1cnc(C(F)(F)F)n1` (stereo not shown) [II-29-31, 1-{2,4-dimethyl-5-[(2,2,2-trifluoroethyl)sulphinyl]phenyl}-3-(trifluoromethyl)-1H-1,2,4-triazole] showed a pest or weed control at 0.8 g/ha (Tetranychus urticae) of 60%.

With `CNC(=O)c1cc(Cl)cc(C)c1NC(=O)c1cc(Br)nn1-c1ncccc1Cl` [Rynaxapyr, Chlorantraniliprole] the pest or weed control at 0.16 g/ha (Spodoptera frugiperda; [5]) was 33% and the pest or weed control at 0.032 g/ha (Myzus persicae; [1]) was 0%.

`Nc1nc(N)nc(NC2CC2)n1` [cyromazine] was tested, and the pest or weed control at 20 g/ha (Phaedon cochleariae; [2]) was 0%, the pest or weed control at 0.16 g/ha (Myzus persicae; [1]) was 0% and the pest or weed control at 0.8 g/ha (Myzus persicae; [1]) was 0%.

Work on `O=C1C=C(N(Cc2ccc(Cl)nc2)CC(F)F)CO1` [compound II-29-29, 4-{[(6-chloropyrid-3-yl)methyl](2,2-difluoroethyl)amino}furan-2(5H)-one] yielded a pest or weed control at 100 g/ha (Phaedon cochleariae; Phaedon cochleariae, 144 h, single active compound, 100 g/ha, 6 d, read-out: Kill in % after 6 d) of 67% and a pest or weed control at 0.8 g/ha (Myzus persicae; [1]) of 50%.

`CNC(=O)c1cc(C#N)cc(C)c1NC(=O)c1cc(Br)nn1-c1ncccc1Cl` [cyazypyr, Cyantraniliprole] was tested, and the pest or weed control at 0.16 g/ha (Phaedon cochleariae; [3]) was 17% and the pest or weed control at 0.16 g/ha (Myzus persicae; [6]) was 0%.

With `C/C(=N\C#N)N(C)Cc1ccc(Cl)nc1` [acetamiprid] the pest or weed control at 0.032 g/ha (Myzus persicae; [1]) was 0%.

Work on `CN(Cc1ccc(Cl)nc1)C1=CC(=O)OC1` [compound II-29-28, 4-{[(6-chloropyrid-3-yl)methyl](methyl)amino}furan-2(5H)-one] yielded a pest or weed control at 0.16 g/ha (Myzus persicae; 144 h, single active compound, 0.16 g/ha, 6 d, read-out: Kill in % after 6 d) of 0%.

`O=C(NC(=O)c1ccccc1Cl)Nc1ccc(OC(F)(F)F)cc1` [triflumuron] was tested, and the pest or weed control at 0.8 g/ha (Spodoptera frugiperda; [1]) was 33%.

For `CN1COCN(Cc2cnc(Cl)s2)/C1=N/[N+](=O)[O-]` [thiamethoxam], the pest or weed control at 0.8 g/ha (Phaedon cochleariae; Phaedon cochleariae, 144 h, single active compound, 0.8 g/ha, 6 d, read-out: Kill in % after 6 d) was 0%, the pest or weed control at 0.0064 g/ha (Myzus persicae; [1]) was 0% and the pest or weed control at 0.032 g/ha (Myzus persicae; [1]) was 0%.

In the case of `CC1(C)C(C=C(Cl)Cl)C1C(=O)OC(C#N)c1cccc(Oc2ccccc2)c1` (stereo not shown) [cypermethrin], the pest or weed control at 0.8 g/ha (Spodoptera frugiperda; [1]) is reported as 50%, the “Kill in % after 2 d” value (Phaedon cochleariae; [4]) is reported as 50% and the pest or weed control at 0.032 g/ha (Myzus persicae; [1]) is reported as 0%. It also gave a pest or weed control at 0.16 g/ha (Myzus persicae; [1]) of 0%.
